Test results: PubChem BioAssay (NCI)
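Cultured in 96-well plates, cells were exposed to test compound for 48 hours across five concentrations. Here, GI50 denotes the concentration required for 50% inhibition of growth. TGI denotes the concentration required for complete inhibition of growth.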

Key:
Assay in all cases: DTP human tumour cell line panel, 48 h
K-562 leukemia = tested on: K-562 leukemia
DU-145 prostate = tested on: DU-145 prostate
IGROV1 ovarian = tested on: IGROV1 ovarian
OVCAR-3 ovarian = tested on: OVCAR-3 ovarian
A498 renal = tested on: A498 renal
U251 CNS = tested on: U251 CNS
MDA-MB-231 breast = tested on: MDA-MB-231 breast
SR leukemia = tested on: SR leukemia
UACC-62 melanoma = tested on: UACC-62 melanoma
MDA-MB-435 = tested on: MDA-MB-435

| SMILES | TGI (K-562 leukemia) | TGI (DU-145 prostate) | TGI (IGROV1 ovarian) | TGI (OVCAR-3 ovarian) | TGI (A498 renal) | TGI (U251 CNS) | TGI (MDA-MB-231 breast) | TGI (SR leukemia) | TGI (UACC-62 melanoma) | TGI (MDA-MB-435) | GI50 (K-562 leukemia) | GI50 (IGROV1 ovarian) | GI50 (OVCAR-3 ovarian) | GI50 (A498 renal) | GI50 (U251 CNS) | GI50 (MDA-MB-231 breast) | GI50 (SR leukemia) | GI50 (UACC-62 melanoma) |
| --- | --- | --- | --- | --- | --- | --- | --- | --- | --- | --- | --- | --- | --- | --- | --- | --- | --- | --- |
| CC(C)(C)C(=O)C(Cc1ccccc1)C(=O)C(C)(C)C | > 100 µM | > 100 µM | > 100 µM | > 100 µM | > 100 µM | > 100 µM | > 100 µM | > 100 µM |  |  |  |  |  |  |  |  |  |  |
| Clc1ccc(Cl)c(SCCCN2CCNCC2)c1 | 39.9 µM | 36 µM | 42.2 µM | 47.4 µM | 28.2 µM | 34.6 µM | 31.7 µM |  | 7.85 µM | 41.4 µM |  |  |  |  |  |  |  |  |
| O=C1CCc2ccc3c(c21)CC1(Cc2ccccc2C1)C3 |  | > 100 µM | > 100 µM | 28.8 µM |  | 74 µM | 40.2 µM | 78.8 µM |  | > 100 µM |  |  |  |  |  |  |  |  |
| CCOC(=O)C1(C(=O)OCC)CCCN1C(=O)[C@H](CNC(=O)OC(C)(C)C)NC(=O)OCc1ccccc1 | > 100 µM | > 100 µM | > 100 µM | > 100 µM |  | > 100 µM | > 100 µM | > 100 µM |  | > 100 µM |  |  |  |  |  |  |  |  |
| O/C(=C\c1nc2ccccc2nc1NC12CC3CC(CC(C3)C1)C2)c1ccc(Br)cc1 | > 10 µM | > 10 µM | > 10 µM | > 10 µM | > 10 µM | > 10 µM | > 10 µM |  | > 10 µM | > 10 µM |  |  |  |  |  |  |  |  |
| Cc1cn([C@H]2C[C@](C)(CO)N(C)O2)c(=O)[nH]c1=O | > 100 µM | > 100 µM | > 100 µM |  | > 100 µM | > 100 µM | > 100 µM | > 100 µM | > 100 µM | > 100 µM |  |  |  |  |  |  |  |  |
| CCN1C(=O)N(CC)C2Nn3c(s/c(=C4\C(=O)N(C)c5ccccc54)c3=O)=NC21 (stereo not given) | > 100 µM |  | > 100 µM | > 100 µM | 5.68 µM | > 100 µM | > 100 µM | > 100 µM |  |  | 0.727 µM | 3.37 µM | 1.99 µM | 1.67 µM | 4.21 µM | 3.42 µM | 0.978 µM |  |
| CCCCC/C(C=O)=C\c1ccccc1 | 69.8 µM | > 100 µM | > 100 µM |  | > 100 µM | > 100 µM | > 100 µM | > 100 µM | > 100 µM | > 100 µM |  |  |  |  |  |  |  |  |
| COc1cc([C@@H]2c3cc4c(cc3[C@@H](c3c(O)cc(O)c5c3O[C@H](c3ccc(O)c(O)c3)[C@@H](O)C5)[C@H]3COC(=O)[C@H]23)OCO4)cc(OC)c1O | > 100 µM | > 100 µM | > 100 µM | > 100 µM | > 100 µM | > 100 µM | > 100 µM |  | > 100 µM | > 100 µM |  |  |  |  |  |  |  |  |
| O=C(c1ccccc1)N1C(=S)N=C(Nc2ccccc2)C1=Nc1ccccc1 | > 100 µM | > 100 µM | > 100 µM |  | > 100 µM | > 100 µM | > 100 µM | > 100 µM | > 100 µM | > 100 µM |  |  |  |  |  |  |  |  |
| COC(=O)[C@H](C)NC(=O)[C@H](CSC)N1C(=O)N[C@@H](C(C)C)C1=O | > 100 µM | > 100 µM | > 100 µM | > 100 µM |  | > 100 µM | > 100 µM | > 100 µM | > 100 µM | > 100 µM |  |  |  |  |  |  |  |  |
| CSC(SC)=C1C(=O)N(c2ccccc2)N=C1C | 66.8 µM |  | 93.5 µM |  | 90.5 µM | > 100 µM | > 100 µM |  | 89.9 µM |  |  |  |  |  |  |  |  |  |
| O=C(CNCc1ccccc1)Oc1c(Cl)c(Cl)c(Cl)c(Cl)c1Cl | > 100 µM | 44.3 µM | > 100 µM | 62.9 µM |  | 70.5 µM | 69.1 µM | 47.9 µM | 51.5 µM | > 100 µM |  |  |  |  |  |  |  |  |
| CC(C)(C)c1ccc(OCC(=O)O)c(Cl)c1 | > 100 µM | > 100 µM | > 100 µM | > 100 µM | > 100 µM | > 100 µM | > 100 µM |  | > 100 µM | > 100 µM |  |  |  |  |  |  |  |  |
| NC(=O)c1ncn2c1NC(=O)CC2 | > 100 µM |  | > 100 µM | > 100 µM | > 100 µM | > 100 µM |  |  | > 100 µM |  |  |  |  |  |  |  |  |  |
| O=C1CCCc2cc3c(cc21)CC1(C3)Cc2ccc3c(c2C1)C(=O)CCC3 (stereo not given) | > 100 µM | > 100 µM | > 100 µM | 69.9 µM | > 100 µM | > 100 µM | > 100 µM | 40.3 µM |  | 23.8 µM |  |  |  |  |  |  |  |  |
| O=C(O)CC(NC(=O)/C(=C/c1ccccc1O)NC(=O)c1ccccc1)C(=O)O (stereo not given) | > 100 µM |  | > 100 µM | > 100 µM | > 100 µM | > 100 µM | > 100 µM | > 100 µM | > 100 µM | > 100 µM |  |  |  |  |  |  |  |  |
| COc1ccccc1N1CCN(CCCNC(=O)c2cc(Cl)c(N)c(Cl)c2)CC1 |  | > 100 µM | > 100 µM |  | > 100 µM | > 100 µM | > 100 µM | 67.5 µM | > 100 µM | > 100 µM |  |  |  |  |  |  |  |  |
| C[C@]12CC[C@H](O)C=C1CC[C@@H]1[C@@H]2CC[C@]2(C)C(c3ccc(=O)oc3)CC[C@]12O (stereo not given in full) | 0.405 µM |  | 0.164 µM | 0.018 µM | 0.081 µM | 0.102 µM |  |  | 0.0378 µM |  |  |  |  |  |  |  |  |  |
| COc1cc(CC(C)N)ccc1O (stereo not given) | > 100 µM | > 100 µM | > 100 µM | > 100 µM | > 100 µM | > 100 µM |  | > 100 µM | > 100 µM |  |  |  |  |  |  |  |  |  |
| O=C1c2cccc(NCCNCCO)c2C(=O)c2cccc(NCCNCCO)c21 | 15 µM | 5.91 µM | 6.39 µM | 4.74 µM | 7.44 µM | 10.9 µM |  |  | 3.81 µM |  |  |  |  |  |  |  |  |  |
| O=C([CH-]C(=O)c1ccccc1)c1ccccc1.O=C([CH-]C(=O)c1ccccc1)c1ccccc1.[O]=[U+2]=[O] |  |  | 12.6 µM | 4.79 µM | 7.89 µM | > 100 µM |  |  | 6.91 µM |  |  | 3.33 µM | 1.81 µM | 2.59 µM | 3.06 µM |  |  | 2.43 µM |
| COP(=O)(OC)C12CCOCCN1c1ccccc1C2=O (stereo not given) |  | > 100 µM | > 100 µM | > 100 µM | > 100 µM | > 100 µM | > 100 µM |  | > 100 µM | > 100 µM |  |  |  |  |  |  |  |  |
